Source: ChEMBL document CHEMBL3797052 (Eur J Med Chem, 2016)

system: MDA-MB-468; assay: Antiproliferative activity against human MDA-MB-468 cells assessed as cell growth at 10^-6 M after 48 hrs by sulforhodamine B assay; format: functional; conditions: MDA-MB-468, 48 h, read-out: Activity

Compound | growth at 1 µM [%]
CNC(=O)c1cc(Oc2ccc3nc(NC(=O)Nc4ccc(Cl)c(Cl)c4)sc3c2)ccn1 | 86

system: NCI-H23; assay: Antiproliferative activity against human NCI-H23 cells assessed as cell growth at 10^-8 M after 48 hrs by sulforhodamine B assay; format: functional; conditions: NCI-H23, 48 h, read-out: Activity

Compound | growth at 0.01 µM [%]
CNC(=O)c1cc(Oc2ccc3nc(NC(=O)Nc4ccc(Cl)c(Cl)c4)sc3c2)ccn1 | 95

system: not listed separately; assay: Antiproliferative activity against human SF295 cells assessed as cell growth at 10^-8 M after 48 hrs by sulforhodamine B assay; format: functional; conditions: SF-295, 48 h, read-out: Activity

Compound | growth at 0.01 µM [%]
CNC(=O)c1cc(Oc2ccc3nc(NC(=O)Nc4ccc(Cl)c(Cl)c4)sc3c2)ccn1 | 86

system: not listed separately; assay: Antiproliferative activity against human OVCAR4 cells assessed as cell growth at 10^-4 M after 48 hrs by sulforhodamine B assay; format: functional; conditions: OVCAR-4, 48 h, read-out: Activity

Compound | growth at 100 µM [%]
CNC(=O)c1cc(Oc2ccc3nc(NC(=O)Nc4ccc(Cl)c(Cl)c4)sc3c2)ccn1 | -68

system: not listed separately; assay: Antiproliferative activity against human UACC257 cells assessed as cell growth at 10^-7 M after 48 hrs by sulforhodamine B assay; format: functional; conditions: UACC-257, 48 h, read-out: Activity

Compound | growth at 0.1 µM [%]
CNC(=O)c1cc(Oc2ccc3nc(NC(=O)Nc4ccc(Cl)c(Cl)c4)sc3c2)ccn1 | 92

system: not listed separately; assay: Antiproliferative activity against human SKOV3 cells assessed as cell growth at 10^-8 M after 48 hrs by sulforhodamine B assay; format: functional; conditions: SK-OV-3, 48 h, read-out: Activity

Compound | growth at 0.01 µM [%]
CNC(=O)c1cc(Oc2ccc3nc(NC(=O)Nc4ccc(Cl)c(Cl)c4)sc3c2)ccn1 | 110

system: not listed separately; assay: Antiproliferative activity against human SW620 cells assessed as cell growth at 10^-4 M after 48 hrs by sulforhodamine B assay; format: functional; conditions: SW-620, 48 h, read-out: Activity

Compound | growth at 100 µM [%]
CNC(=O)c1cc(Oc2ccc3nc(NC(=O)Nc4ccc(Cl)c(Cl)c4)sc3c2)ccn1 | 48

system: not listed separately; assay: Antiproliferative activity against human HOP92 cells assessed as cell growth at 10^-7 M after 48 hrs by sulforhodamine B assay; format: functional; conditions: HOP-92, 48 h, read-out: Activity

Compound | growth at 0.1 µM [%]
CNC(=O)c1cc(Oc2ccc3nc(NC(=O)Nc4ccc(Cl)c(Cl)c4)sc3c2)ccn1 | 110

system: not listed separately; assay: Antiproliferative activity against human HCC2998 cells assessed as cell growth at 10^-6 M after 48 hrs by sulforhodamine B assay; format: functional; conditions: HCC 2998, 48 h, read-out: Activity

Compound | growth at 1 µM [%]
CNC(=O)c1cc(Oc2ccc3nc(NC(=O)Nc4ccc(Cl)c(Cl)c4)sc3c2)ccn1 | 100

system: not listed separately; assay: Antiproliferative activity against human UACC62 cells assessed as growth inhibition after 48 hrs by sulforhodamine B assay; format: functional; conditions: UACC-62, 48 h

Compound | TGI [µM] | GI50 [nM]
CNC(=O)c1cc(Oc2ccc(NC(=O)Nc3ccc(Cl)c(C(F)(F)F)c3)cc2)ccn1 [SORAFENIB] | 5.01 | –
CNC(=O)c1cc(Oc2ccc3nc(NC(=O)Nc4ccc(Cl)c(Cl)c4)sc3c2)ccn1 | 7.76 | 2320

same assay, conditions: UACC-62, 48 h, read-out: LC50 (the source's name)

Compound | CC50 [µM]
CNC(=O)c1cc(Oc2ccc(NC(=O)Nc3ccc(Cl)c(C(F)(F)F)c3)cc2)ccn1 [SORAFENIB] | 20
CNC(=O)c1cc(Oc2ccc3nc(NC(=O)Nc4ccc(Cl)c(Cl)c4)sc3c2)ccn1 | > 100

system: MDA-MB-468; assay: Antiproliferative activity against human MDA-MB-468 cells assessed as cell growth at 10^-4 M after 48 hrs by sulforhodamine B assay; format: functional; conditions: MDA-MB-468, 48 h, read-out: Activity

Compound | growth at 100 µM [%]
CNC(=O)c1cc(Oc2ccc3nc(NC(=O)Nc4ccc(Cl)c(Cl)c4)sc3c2)ccn1 | -44

system: not listed separately; assay: Antiproliferative activity against human MOLT4 cells assessed as cell growth at 10^-8 M after 48 hrs by sulforhodamine B assay; format: functional; conditions: MOLT-4, 48 h, read-out: Activity

Compound | growth at 0.01 µM [%]
CNC(=O)c1cc(Oc2ccc3nc(NC(=O)Nc4ccc(Cl)c(Cl)c4)sc3c2)ccn1 | 92

system: ACHN; assay: Antiproliferative activity against human ACHN cells assessed as cell growth at 10^-7 M after 48 hrs by sulforhodamine B assay; format: functional; conditions: read-out: Activity

Compound | growth at 0.1 µM [%]
CNC(=O)c1cc(Oc2ccc3nc(NC(=O)Nc4ccc(Cl)c(Cl)c4)sc3c2)ccn1 | 94

system: not listed separately; assay: Antiproliferative activity against human BT549 cells assessed as cell growth at 10^-6 M after 48 hrs by sulforhodamine B assay; format: functional; conditions: BT-549, 48 h, read-out: Activity

Compound | growth at 1 µM [%]
CNC(=O)c1cc(Oc2ccc3nc(NC(=O)Nc4ccc(Cl)c(Cl)c4)sc3c2)ccn1 | 102

system: K562; assay: Antiproliferative activity against human K562 cells assessed as cell growth at 10^-6 M after 48 hrs by sulforhodamine B assay; format: functional; conditions: K562, 48 h, read-out: Activity

Compound | growth at 1 µM [%]
CNC(=O)c1cc(Oc2ccc3nc(NC(=O)Nc4ccc(Cl)c(Cl)c4)sc3c2)ccn1 | 98

system: not listed separately; assay: Antiproliferative activity against human HCT15 cells assessed as cell growth at 10^-4 M after 48 hrs by sulforhodamine B assay; format: functional; conditions: HCT-15, 48 h, read-out: Activity

Compound | growth at 100 µM [%]
CNC(=O)c1cc(Oc2ccc3nc(NC(=O)Nc4ccc(Cl)c(Cl)c4)sc3c2)ccn1 | 26

system: not listed separately; assay: Antiproliferative activity against human MOLT4 cells assessed as cell growth at 10^-7 M after 48 hrs by sulforhodamine B assay; format: functional; conditions: MOLT-4, 48 h, read-out: Activity

Compound | growth at 0.1 µM [%]
CNC(=O)c1cc(Oc2ccc3nc(NC(=O)Nc4ccc(Cl)c(Cl)c4)sc3c2)ccn1 | 96

target: CYP2D6 (Homo sapiens, UniProt P10635); assay: Inhibition of recombinant human CYP2D6 assessed as remaining enzyme activity using CYP2D6 blue as substrate at 10 uM after 5 mins in presence of NADP by fluorescence plate reader analysis; format: ADME; conditions: recombinant human CYP2D6, probe CYP2D6 blue, read-out: Activity
Sequence (P10635 whole entry): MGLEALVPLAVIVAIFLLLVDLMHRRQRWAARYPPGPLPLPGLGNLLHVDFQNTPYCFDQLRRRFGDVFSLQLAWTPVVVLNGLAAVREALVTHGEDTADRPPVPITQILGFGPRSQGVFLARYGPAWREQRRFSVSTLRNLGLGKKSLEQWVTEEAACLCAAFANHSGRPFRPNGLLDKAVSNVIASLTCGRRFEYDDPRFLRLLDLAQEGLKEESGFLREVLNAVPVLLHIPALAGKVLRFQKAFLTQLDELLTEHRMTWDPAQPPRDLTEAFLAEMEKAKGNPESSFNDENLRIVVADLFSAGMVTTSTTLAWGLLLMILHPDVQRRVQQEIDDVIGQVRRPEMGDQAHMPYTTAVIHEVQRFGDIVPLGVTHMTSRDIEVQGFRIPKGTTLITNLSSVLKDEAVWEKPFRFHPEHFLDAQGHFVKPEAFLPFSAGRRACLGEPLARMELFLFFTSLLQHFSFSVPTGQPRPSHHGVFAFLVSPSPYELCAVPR

Compound | activity at 5 min, 10 µM [%]
CNC(=O)c1cc(Oc2ccc3nc(NC(=O)Nc4ccc(Cl)c(Cl)c4)sc3c2)ccn1 | 96.4

system: not listed separately; assay: Antiproliferative activity against human SF539 cells assessed as cell growth at 10^-6 M after 48 hrs by sulforhodamine B assay; format: functional; conditions: SF-539, 48 h, read-out: Activity

Compound | growth at 1 µM [%]
CNC(=O)c1cc(Oc2ccc3nc(NC(=O)Nc4ccc(Cl)c(Cl)c4)sc3c2)ccn1 | 100

system: not listed separately; assay: Antiproliferative activity against human UO31 cells assessed as cell growth at 10^-6 M after 48 hrs by sulforhodamine B assay; format: functional; conditions: UO-31, 48 h, read-out: Activity

Compound | growth at 1 µM [%]
CNC(=O)c1cc(Oc2ccc3nc(NC(=O)Nc4ccc(Cl)c(Cl)c4)sc3c2)ccn1 | 106

system: not listed separately; assay: Antiproliferative activity against human COLO205 cells assessed as cell growth at 10^-6 M after 48 hrs by sulforhodamine B assay; format: functional; conditions: COLO 205, 48 h, read-out: Activity

Compound | growth at 1 µM [%]
CNC(=O)c1cc(Oc2ccc3nc(NC(=O)Nc4ccc(Cl)c(Cl)c4)sc3c2)ccn1 | 106

system: SR; assay: Antiproliferative activity against human SR cells assessed as growth inhibition after 48 hrs by sulforhodamine B assay; format: functional; conditions: not given

Compound | GI50 [µM] | TGI [µM] | LC50 [µM]
CNC(=O)c1cc(Oc2ccc(NC(=O)Nc3ccc(Cl)c(C(F)(F)F)c3)cc2)ccn1 [SORAFENIB] | 3.16 | 100 | –
CNC(=O)c1cc(Oc2ccc3nc(NC(=O)Nc4ccc(Cl)c(Cl)c4)sc3c2)ccn1 | 6.47 | > 100 | > 100

system: not listed separately; assay: Antiproliferative activity against human COLO205 cells assessed as cell growth at 10^-4 M after 48 hrs by sulforhodamine B assay; format: functional; conditions: COLO 205, 48 h, read-out: Activity

Compound | growth at 100 µM [%]
CNC(=O)c1cc(Oc2ccc3nc(NC(=O)Nc4ccc(Cl)c(Cl)c4)sc3c2)ccn1 | 26

system: A498; assay: Antiproliferative activity against human A498 cells assessed as cell growth at 10^-6 M after 48 hrs by sulforhodamine B assay; format: functional; conditions: A498, 48 h, read-out: Activity

Compound | growth at 1 µM [%]
CNC(=O)c1cc(Oc2ccc3nc(NC(=O)Nc4ccc(Cl)c(Cl)c4)sc3c2)ccn1 | 115

target: CYP3A4 (Homo sapiens, UniProt P08684); assay: Inhibition of recombinant human CYP3A4 assessed as remaining enzyme activity using CYP3A4 blue as substrate at 10 uM after 5 mins in presence of NADP by fluorescence plate reader analysis; format: ADME; conditions: recombinant human CYP3A4, probe CYP3A4 blue, read-out: Activity
Sequence (P08684 whole entry): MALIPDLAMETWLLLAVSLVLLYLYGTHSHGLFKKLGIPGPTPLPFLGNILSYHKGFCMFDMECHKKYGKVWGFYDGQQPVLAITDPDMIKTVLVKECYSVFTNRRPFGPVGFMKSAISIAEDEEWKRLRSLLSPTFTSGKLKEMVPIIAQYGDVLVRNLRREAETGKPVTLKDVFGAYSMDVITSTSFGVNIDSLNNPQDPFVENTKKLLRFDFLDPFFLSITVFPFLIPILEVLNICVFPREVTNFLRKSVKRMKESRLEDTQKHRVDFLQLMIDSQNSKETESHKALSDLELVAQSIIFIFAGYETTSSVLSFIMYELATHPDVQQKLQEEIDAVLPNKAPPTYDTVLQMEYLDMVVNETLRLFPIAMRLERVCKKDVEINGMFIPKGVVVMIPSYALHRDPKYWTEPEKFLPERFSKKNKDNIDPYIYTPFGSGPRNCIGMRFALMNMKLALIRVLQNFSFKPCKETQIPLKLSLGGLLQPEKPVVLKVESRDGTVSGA

Compound | activity at 5 min, 10 µM [%]
CNC(=O)c1cc(Oc2ccc3nc(NC(=O)Nc4ccc(Cl)c(Cl)c4)sc3c2)ccn1 | 104

system: not listed separately; assay: Antiproliferative activity against human IGROV1 cells assessed as cell growth at 10^-6 M after 48 hrs by sulforhodamine B assay; format: functional; conditions: IGROV-1, 48 h, read-out: Activity

Compound | growth at 1 µM [%]
CNC(=O)c1cc(Oc2ccc3nc(NC(=O)Nc4ccc(Cl)c(Cl)c4)sc3c2)ccn1 | 98

system: MCF7; assay: Antiproliferative activity against human MCF7 cells assessed as cell growth at 10^-7 M after 48 hrs by sulforhodamine B assay; format: functional; conditions: MCF7, 48 h, read-out: Activity

Compound | growth at 0.1 µM [%]
CNC(=O)c1cc(Oc2ccc3nc(NC(=O)Nc4ccc(Cl)c(Cl)c4)sc3c2)ccn1 | 89

system: Serine/threonine-protein kinase B-raf (Homo sapiens), P15056 [V600E]; assay: Inhibition of BRAF V600E mutant (unknown origin) at 10 uM measured after 40 mins by scintillation counting; conditions: not given
Sequence (P15056 whole entry V600E): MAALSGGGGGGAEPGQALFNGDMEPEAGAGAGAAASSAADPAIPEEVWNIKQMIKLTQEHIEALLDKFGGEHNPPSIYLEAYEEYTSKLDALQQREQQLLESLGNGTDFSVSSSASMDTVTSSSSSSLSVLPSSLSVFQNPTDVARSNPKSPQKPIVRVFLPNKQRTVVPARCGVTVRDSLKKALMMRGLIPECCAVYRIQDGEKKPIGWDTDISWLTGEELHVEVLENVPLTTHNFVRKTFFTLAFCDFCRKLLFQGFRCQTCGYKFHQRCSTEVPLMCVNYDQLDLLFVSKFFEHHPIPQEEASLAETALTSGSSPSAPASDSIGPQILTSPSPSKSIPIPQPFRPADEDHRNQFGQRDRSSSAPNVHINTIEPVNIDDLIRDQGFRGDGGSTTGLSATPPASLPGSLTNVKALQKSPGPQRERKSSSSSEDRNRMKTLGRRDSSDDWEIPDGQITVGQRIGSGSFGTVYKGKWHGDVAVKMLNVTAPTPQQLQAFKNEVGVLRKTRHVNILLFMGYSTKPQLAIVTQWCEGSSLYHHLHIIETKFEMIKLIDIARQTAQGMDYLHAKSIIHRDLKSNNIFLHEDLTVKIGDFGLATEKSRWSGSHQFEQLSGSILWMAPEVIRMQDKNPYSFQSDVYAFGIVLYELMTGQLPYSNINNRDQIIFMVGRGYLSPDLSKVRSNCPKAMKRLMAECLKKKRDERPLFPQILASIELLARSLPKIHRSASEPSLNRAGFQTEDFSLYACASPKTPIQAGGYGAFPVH

Compound | inhibition [%]
CNC(=O)c1cc(Oc2ccc3nc(NC(=O)Nc4ccc(Cl)c(Cl)c4)sc3c2)ccn1 | 67.6

system: NCI-H23; assay: Antiproliferative activity against human NCI-H23 cells assessed as growth inhibition after 48 hrs by sulforhodamine B assay; format: functional; conditions: NCI-H23, 48 h

Compound | GI50 [nM] | TGI [µM] | LC50 [µM]
CNC(=O)c1cc(Oc2ccc(NC(=O)Nc3ccc(Cl)c(C(F)(F)F)c3)cc2)ccn1 [SORAFENIB] | 2000 | 5.01 | –
CNC(=O)c1cc(Oc2ccc3nc(NC(=O)Nc4ccc(Cl)c(Cl)c4)sc3c2)ccn1 | 2780 | > 100 | > 100

system: not listed separately; assay: Antiproliferative activity against human Caki1 cells assessed as growth inhibition after 48 hrs by sulforhodamine B assay; format: functional; conditions: CAKI-1, 48 h

Compound | GI50 [nM] | TGI [µM]
CNC(=O)c1cc(Oc2ccc(NC(=O)Nc3ccc(Cl)c(C(F)(F)F)c3)cc2)ccn1 [SORAFENIB] | 3160 | 3.98
CNC(=O)c1cc(Oc2ccc3nc(NC(=O)Nc4ccc(Cl)c(Cl)c4)sc3c2)ccn1 | 2460 | 6.3

same assay, conditions: CAKI-1, 48 h, read-out: LC50 (the source's name)

Compound | CC50 [µM]
CNC(=O)c1cc(Oc2ccc(NC(=O)Nc3ccc(Cl)c(C(F)(F)F)c3)cc2)ccn1 [SORAFENIB] | 10
CNC(=O)c1cc(Oc2ccc3nc(NC(=O)Nc4ccc(Cl)c(Cl)c4)sc3c2)ccn1 | > 100

system: not listed separately; assay: Antiproliferative activity against human SNB75 cells assessed as growth inhibition after 48 hrs by sulforhodamine B assay; format: functional; conditions: SNB-75, 48 h

Compound | GI50 [nM] | TGI [µM]
CNC(=O)c1cc(Oc2ccc(NC(=O)Nc3ccc(Cl)c(C(F)(F)F)c3)cc2)ccn1 [SORAFENIB] | 3160 | 10
CNC(=O)c1cc(Oc2ccc3nc(NC(=O)Nc4ccc(Cl)c(Cl)c4)sc3c2)ccn1 | 1730 | 3.61

same assay, conditions: SNB-75, 48 h, read-out: LC50 (the source's name)

Compound | CC50 [µM]
CNC(=O)c1cc(Oc2ccc(NC(=O)Nc3ccc(Cl)c(C(F)(F)F)c3)cc2)ccn1 [SORAFENIB] | 39.8
CNC(=O)c1cc(Oc2ccc3nc(NC(=O)Nc4ccc(Cl)c(Cl)c4)sc3c2)ccn1 | 7.54

system: SK-MEL-2; assay: Antiproliferative activity against human SK-MEL-2 cells assessed as cell growth at 10^-7 M after 48 hrs by sulforhodamine B assay; format: functional; conditions: SK-MEL-2, 48 h, read-out: Activity

Compound | growth at 0.1 µM [%]
CNC(=O)c1cc(Oc2ccc3nc(NC(=O)Nc4ccc(Cl)c(Cl)c4)sc3c2)ccn1 | 118

system: not listed separately; assay: Antiproliferative activity against human SNB75 cells assessed as cell growth at 10^-7 M after 48 hrs by sulforhodamine B assay; format: functional; conditions: SNB-75, 48 h, read-out: Activity

Compound | growth at 0.1 µM [%]
CNC(=O)c1cc(Oc2ccc3nc(NC(=O)Nc4ccc(Cl)c(Cl)c4)sc3c2)ccn1 | 83

system: 786-0; assay: Antiproliferative activity against human 786-0 cells assessed as cell growth at 10^-6 M after 48 hrs by sulforhodamine B assay; format: functional; conditions: 786-0, 48 h, read-out: Activity

Compound | growth at 1 µM [%]
CNC(=O)c1cc(Oc2ccc3nc(NC(=O)Nc4ccc(Cl)c(Cl)c4)sc3c2)ccn1 | 100
